The IC50 is the concentration needed to halve the response being measured. Read a low IC50 as greater potency.

Test [1] has as its target T1, hRIPK1 (aa 1-375) fusion protein (Homo sapiens, UniProt Q13546).
T1 construct: hRIPK1 (aa 1-375) fusion protein
T1 sequence (Q13546 1-375): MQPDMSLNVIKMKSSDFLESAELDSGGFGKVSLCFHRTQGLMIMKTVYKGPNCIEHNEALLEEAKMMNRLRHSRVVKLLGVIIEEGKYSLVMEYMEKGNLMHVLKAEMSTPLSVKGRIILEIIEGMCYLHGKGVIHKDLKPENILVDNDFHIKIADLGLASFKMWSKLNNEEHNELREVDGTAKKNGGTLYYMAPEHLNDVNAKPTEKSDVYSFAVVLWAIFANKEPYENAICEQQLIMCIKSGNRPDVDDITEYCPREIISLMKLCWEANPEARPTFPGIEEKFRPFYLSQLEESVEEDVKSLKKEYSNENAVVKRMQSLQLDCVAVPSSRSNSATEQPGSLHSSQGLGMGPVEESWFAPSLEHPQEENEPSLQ
Kind of test: Receptor-Interacting Protein Kinase 1 inhibition, ADP Glo assay (conversion of ATP to ADP due to autophosphorylation). To be noted: ATP 50 μM, 30 min preincubation, 240 min incubation, room temperature, DMSO 1%. Format: biochemical. Summed up:
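The readout was ADP-Glo luminescence after a 240 min rt autophosphorylation reaction with 50 μM ATP, following 30 min preincubation of 3.6 μg/ml hRIPK1 (aa 1-375) fusion with compound at 33300-1.69 nM final in 1% DMSO. Values came from Levenberg-Marquardt nonlinear fits.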

A further test has as its system U937 cells. Kind of test: Cellular assay in U937 cells to measure activity of RIPK1-inhibitors on cell death (necroptosis). Format: cell-based. To be noted: overnight (18 to 24 hrs), 37° C., MTS readout.
Setting [2] is: Homo sapiens, U-937, TNFα/zVAD.fmk induced cell death (necroptosis).

On to `N#Cc1cccc(OC[C@H]2CC[C@H](C(=O)N3OCC[C@H]3c3cncc(C#N)c3)CC2)c1` [Compound 71, trans-5-((S)-2-(4-((3-cyanophenoxy)methyl)cyclohexane-1-carbonyl)isoxazolidin-3-yl)nicotinonitrile], for which the 50% inhibitory concentration (IC50) in test [1] is 14 nM; in the test on U937 cells (setting [2]), 6 nM.

For `O=C([C@H]1C[C@@H](n2cnc3ccc(F)cc32)C1)N1OCC[C@H]1c1cc(F)cc(F)c1` [Compound 87, cis-((S)-3-(3,5-difluorophenyl)isoxazolidin-2-yl)(3-(6-fluoro-1H-benzo[d]imidazol-1-yl)cyclobutyl)methanone], the IC50 in test [1] is 89 nM; with U937 cells (setting [2]), 551 nM.

Take `C[C@]1(C(=O)N2OCC[C@H]2c2cc(F)cc(F)c2)C[C@@H](Nc2nccc(C(N)=O)n2)C1` [Compound 6, cis-2-((3-((S)-3-(3,5-difluorophenyl)isoxazolidine-2-carbonyl)-3-methylcyclobutyl)amino)pyrimidine-4-carboxamide]: the values for the IC50 (in test [1]; in the test on U937 cells (setting [2])) were 21 nM and 6 nM, respectively.

Regarding `O=C1CCC(=O)N1c1ccc(Cl)c(OC[C@H]2CC[C@H](C(=O)N3OCC[C@H]3c3cc(F)cc(F)c3)CC2)c1` [Compound 58, trans-1-(4-chloro-3-((4-((S)-3-(3,5-difluorophenyl)isoxazolidine-2-carbonyl)cyclohexyl)methoxy)phenyl)pyrrolidine-2,5-dione], the IC50 in test [1] was 44 nM; with U937 cells (setting [2]) it was 104 nM.

For `NC(=O)c1cc(OC[C@H]2CC[C@@H](C(=O)N3OCC[C@H]3c3cc(F)cc(F)c3)CC2)ncn1` [Compound 54, cis-6-((4-((S)-3-(3,5-difluorophenyl)isoxazolidine-2-carbonyl)cyclohexyl)methoxy)pyrimidine-4-carboxamide], the IC50 in test [1] is 80 nM; in the test on U937 cells (setting [2]) it was 364 nM.

As to `Cc1nc([C@@H]2CCON2C(=O)[C@H]2CC[C@H](COc3cccc(C(N)=O)c3)CC2)cs1` [Compound 130, trans-3-[[4-[(3S)-3-(2-methylthiazol-4-yl)isoxazolidine-2-carbonyl]cyclohexyl]methoxy]benzamide], the results for the half-inhibitory concentration (IC50) (in test [1]; in the test with U937 cells (setting [2])) were 37 nM and 98 nM, respectively.

Take `N#Cc1ccnc(N[C@H]2C[C@@H](C(=O)N3OCC[C@H]3c3ccc(Cl)cc3)C2)n1` [Compound 24, cis-2-((3-((S)-3-(4-chlorophenyl)isoxazolidine-2-carbonyl)cyclobutyl)amino)pyrimidine-4-carbonitrile]: the 50% inhibitory concentration (IC50) in test [1] stood at 13 nM; in the test on U937 cells (TNFα/zVAD.fmk induced cell death (necroptosis)), 264 nM.

Turning to `N#Cc1cc(F)cc(OC[C@H]2CC[C@H](C(=O)N3OCC[C@H]3c3cncc(C#N)c3)CC2)c1` [Compound 83, trans-5-((S)-2-(4-((3-cyano-5-fluorophenoxy)methyl)cyclohexane-1-carbonyl)isoxazolidin-3-yl)nicotinonitrile], the IC50 in test [1] was determined as 34 nM; in the test on U937 cells (setting [2]) it was 23 nM.

With `C[C@]1(C(=O)N2OCC[C@H]2c2cc(F)cc(F)c2)C[C@@H](Nc2ncnc(C(N)=O)c2F)C1` [Compound 11, cis-6-((3-((S)-3-(3,5-difluorophenyl)isoxazolidine-2-carbonyl)-3-methylcyclobutyl)amino)-5-fluoropyrimidine-4-carboxamide], the half-maximal inhibitory concentration (IC50) in test [1] stood at 62 nM; in the test on U937 cells (setting [2]) it was 440 nM.

Regarding `NC(=O)c1cccc(OC[C@H]2CC[C@H](C(=O)N3OCC[C@H]3c3ccccn3)CC2)c1` [Compound 131, trans-3-[[4-[(3S)-3-(2-pyridyl)isoxazolidine-2-carbonyl]cyclohexyl]methoxy]benzamide], the 50% inhibitory concentration (IC50) is 47 nM in test [1] and 236 nM in the test on U937 cells (setting [2]).

For the compound `NC(=O)c1cccc(OC[C@H]2CC[C@H](C(=O)N3OCC[C@H]3c3cnccn3)CC2)c1` [Compound 100, trans-3-[[4-[(3S)-3-pyrazin-2-ylisoxazolidine-2-carbonyl]cyclohexyl]methoxy]benzamide], the 50% inhibitory concentration (IC50) was found to be 42 nM in test [1] and 139 nM in the test on U937 cells (setting [2]).

Regarding `N#Cc1cc(F)cc([C@@H]2CCON2C(=O)[C@H]2C[C@@H](n3ccc4cc(F)ccc43)C2)c1` [Compound 107, cis-3-fluoro-5-[(3S)-2-[3-(5-fluoroindol-1-yl)cyclobutanecarbonyl]isoxazolidin-3-yl]benzonitrile], the IC50 in test [1] was 19 nM; in the test with U937 cells (setting [2]), 214 nM.

For `N#Cc1cc(F)cc([C@@H]2CCON2C(=O)[C@H]2C[C@@H](Nc3cc(C#N)ncn3)C2)c1` [Compound 20, cis-6-((3-((S)-3-(3-cyano-5-fluorophenyl)isoxazolidine-2-carbonyl)cyclobutyl)amino)pyrimidine-4-carbonitrile], the 50% inhibitory concentration (IC50) in test [1] turned out to be 69 nM; in the test with U937 cells (setting [2]), 809 nM.

`CC1(C)OC(=O)N(c2ccc(F)c(OC[C@H]3CC[C@H](C(=O)N4OCC[C@H]4c4cc(F)cc(F)c4)CC3)c2)C1=O` [Compound 59, trans-3-(3-((4-((S)-3-(3,5-difluorophenyl)isoxazolidine-2-carbonyl)cyclohexyl)methoxy)-4-fluorophenyl)-5,5-dimethyloxazolidine-2,4-dione]: the 50% inhibitory concentration (IC50) in test [1] is 29 nM; in the test on U937 cells (setting [2]), 30 nM.

For the compound `NC(=O)c1ccnc(N[C@H]2C[C@@H](C(=O)N3OCC[C@H]3c3cc(F)cc(F)c3)C2)n1` [Compound 1, cis-2-((3-((S)-3-(3,5-difluorophenyl)isoxazolidine-2-carbonyl)cyclobutyl)amino)pyrimidine-4-carboxamide], the results for the IC50 (in test [1]; with U937 cells (setting [2])) were 19 nM and 34 nM, respectively.

As to `O=C([C@H]1C[C@H](n2ccc3cc(F)ccc32)C1)N1OCC[C@H]1c1cc(F)cc(F)c1` [Compound 106, trans-[(3S)-3-(3,5-difluorophenyl)isoxazolidin-2-yl]-[3-(5-fluoroindol-1-yl)cyclobutyl]methanone], the IC50 is 77 nM in test [1] and 353 nM with U937 cells (setting [2]).

For the origin of these results see US20260317312A1, “ISOXAZOLIDINES AS RIPK1 INHIBITORS AND USE THEREOF” (GENZYME CORPORATION, priority 2023, published 2026).
